What was measured:
[1] = biological target: Cyclin-dependent kinase 14 (Homo sapiens) (UniProt O94921); assay: Inhibition of PFTK1 (unknown origin) assessed as remaining activity at 1 uM by Kinome scan method relative to control
[2] = biological target: Cyclin-dependent kinase 3 (Homo sapiens) (UniProt Q00526); assay: Inhibition of CDK3 (unknown origin) assessed as remaining activity at 1 uM by Kinome scan method relative to control
[3] = biological target: T1, Ephrin type-B receptor 4 (Homo sapiens) (UniProt P54760); assay: Inhibition of EPHB4 (unknown origin) assessed as remaining activity at 1 uM by Kinome scan method relative to control
T1 sequence (whole entry): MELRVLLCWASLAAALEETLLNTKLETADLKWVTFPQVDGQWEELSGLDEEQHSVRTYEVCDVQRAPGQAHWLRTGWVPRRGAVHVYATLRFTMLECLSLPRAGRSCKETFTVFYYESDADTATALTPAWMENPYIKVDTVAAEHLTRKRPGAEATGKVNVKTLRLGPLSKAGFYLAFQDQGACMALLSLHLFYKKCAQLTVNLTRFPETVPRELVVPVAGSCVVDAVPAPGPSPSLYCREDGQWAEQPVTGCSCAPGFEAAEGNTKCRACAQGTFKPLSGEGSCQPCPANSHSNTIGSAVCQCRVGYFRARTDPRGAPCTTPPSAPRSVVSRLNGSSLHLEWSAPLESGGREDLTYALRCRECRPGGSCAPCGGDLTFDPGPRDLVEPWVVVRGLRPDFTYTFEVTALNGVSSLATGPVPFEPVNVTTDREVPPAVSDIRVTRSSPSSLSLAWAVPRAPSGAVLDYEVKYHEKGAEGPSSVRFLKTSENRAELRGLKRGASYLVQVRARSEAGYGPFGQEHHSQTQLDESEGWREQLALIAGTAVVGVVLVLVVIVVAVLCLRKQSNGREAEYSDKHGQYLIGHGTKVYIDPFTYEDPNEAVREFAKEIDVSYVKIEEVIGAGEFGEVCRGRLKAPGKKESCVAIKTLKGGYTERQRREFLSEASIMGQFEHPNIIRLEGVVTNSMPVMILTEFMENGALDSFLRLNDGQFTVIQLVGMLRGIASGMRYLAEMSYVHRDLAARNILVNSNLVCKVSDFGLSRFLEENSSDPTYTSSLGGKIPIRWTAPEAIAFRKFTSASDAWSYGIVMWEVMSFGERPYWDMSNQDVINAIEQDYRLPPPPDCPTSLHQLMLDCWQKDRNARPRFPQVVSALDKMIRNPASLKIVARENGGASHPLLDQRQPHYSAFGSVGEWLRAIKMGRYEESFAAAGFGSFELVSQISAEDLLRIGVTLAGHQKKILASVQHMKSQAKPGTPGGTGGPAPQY

[4] = tested on: Tyrosine-protein kinase ABL1 (Homo sapiens), P00519 [F317I]; assay: Inhibition of ABL1 F317I mutant (unknown origin) assessed as remaining activity at 1 uM by Kinome scan method relative to control
[5] = biological target: Fibroblast growth factor receptor 1 (Homo sapiens) (UniProt P11362); assay: Inhibition of FGFR1 (unknown origin) assessed as remaining activity at 1 uM by Kinome scan method relative to control
[6] = biological target: Serine/threonine-protein kinase 32C (Homo sapiens) (UniProt Q86UX6); assay: Inhibition of YANK3 (unknown origin) assessed as remaining activity at 1 uM by Kinome scan method relative to control
[7] = biological target: Serine/threonine-protein kinase 36 (Homo sapiens) (UniProt Q9NRP7); assay: Inhibition of STK36 (unknown origin) assessed as remaining activity at 1 uM by Kinome scan method relative to control
[8] = biological target: cAMP-dependent protein kinase catalytic subunit alpha (Homo sapiens) (UniProt P17612); assay: Inhibition of PKAC-alpha (unknown origin) assessed as remaining activity at 1 uM by Kinome scan method relative to control
[9] = tested on: Phosphatidylinositol 4,5-bisphosphate 3-kinase catalytic subunit alpha isoform (Homo sapiens), P42336 [M1043I]; assay: Inhibition of PIK3CA M1043I mutant (unknown origin) assessed as remaining activity at 1 uM by Kinome scan method relative to control
[10] = biological target: T2, Megakaryocyte-associated tyrosine-protein kinase (Homo sapiens) (UniProt P42679); assay: Inhibition of CTK (unknown origin) assessed as remaining activity at 1 uM by Kinome scan method relative to control
T2 sequence (whole entry): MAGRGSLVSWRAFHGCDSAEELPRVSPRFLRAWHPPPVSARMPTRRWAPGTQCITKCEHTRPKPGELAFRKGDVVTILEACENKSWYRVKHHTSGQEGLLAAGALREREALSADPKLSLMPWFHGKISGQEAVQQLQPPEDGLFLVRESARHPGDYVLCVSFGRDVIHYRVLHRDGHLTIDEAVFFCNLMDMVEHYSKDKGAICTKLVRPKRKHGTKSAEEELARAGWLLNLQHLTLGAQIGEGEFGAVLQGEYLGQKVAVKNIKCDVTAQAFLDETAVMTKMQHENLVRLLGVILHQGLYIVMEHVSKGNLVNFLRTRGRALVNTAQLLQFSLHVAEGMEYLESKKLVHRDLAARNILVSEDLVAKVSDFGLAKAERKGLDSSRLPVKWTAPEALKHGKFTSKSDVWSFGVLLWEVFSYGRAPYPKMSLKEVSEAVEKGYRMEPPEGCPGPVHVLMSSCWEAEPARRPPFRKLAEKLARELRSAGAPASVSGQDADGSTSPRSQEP

[11] = biological target: Mitogen-activated protein kinase kinase kinase kinase 1 (Homo sapiens) (UniProt Q92918); assay: Inhibition of HPK1 (unknown origin) assessed as remaining activity at 1 uM by Kinome scan method relative to control
[12] = biological target: 5'-AMP-activated protein kinase catalytic subunit alpha-2 (Homo sapiens) (UniProt P54646); assay: Inhibition of AMPK-alpha2 (unknown origin) assessed as remaining activity at 1 uM by Kinome scan method relative to control

Chain of Tyrosine-protein kinase ABL1 (Homo sapiens), P00519 [F317I] (P00519 whole entry F317I): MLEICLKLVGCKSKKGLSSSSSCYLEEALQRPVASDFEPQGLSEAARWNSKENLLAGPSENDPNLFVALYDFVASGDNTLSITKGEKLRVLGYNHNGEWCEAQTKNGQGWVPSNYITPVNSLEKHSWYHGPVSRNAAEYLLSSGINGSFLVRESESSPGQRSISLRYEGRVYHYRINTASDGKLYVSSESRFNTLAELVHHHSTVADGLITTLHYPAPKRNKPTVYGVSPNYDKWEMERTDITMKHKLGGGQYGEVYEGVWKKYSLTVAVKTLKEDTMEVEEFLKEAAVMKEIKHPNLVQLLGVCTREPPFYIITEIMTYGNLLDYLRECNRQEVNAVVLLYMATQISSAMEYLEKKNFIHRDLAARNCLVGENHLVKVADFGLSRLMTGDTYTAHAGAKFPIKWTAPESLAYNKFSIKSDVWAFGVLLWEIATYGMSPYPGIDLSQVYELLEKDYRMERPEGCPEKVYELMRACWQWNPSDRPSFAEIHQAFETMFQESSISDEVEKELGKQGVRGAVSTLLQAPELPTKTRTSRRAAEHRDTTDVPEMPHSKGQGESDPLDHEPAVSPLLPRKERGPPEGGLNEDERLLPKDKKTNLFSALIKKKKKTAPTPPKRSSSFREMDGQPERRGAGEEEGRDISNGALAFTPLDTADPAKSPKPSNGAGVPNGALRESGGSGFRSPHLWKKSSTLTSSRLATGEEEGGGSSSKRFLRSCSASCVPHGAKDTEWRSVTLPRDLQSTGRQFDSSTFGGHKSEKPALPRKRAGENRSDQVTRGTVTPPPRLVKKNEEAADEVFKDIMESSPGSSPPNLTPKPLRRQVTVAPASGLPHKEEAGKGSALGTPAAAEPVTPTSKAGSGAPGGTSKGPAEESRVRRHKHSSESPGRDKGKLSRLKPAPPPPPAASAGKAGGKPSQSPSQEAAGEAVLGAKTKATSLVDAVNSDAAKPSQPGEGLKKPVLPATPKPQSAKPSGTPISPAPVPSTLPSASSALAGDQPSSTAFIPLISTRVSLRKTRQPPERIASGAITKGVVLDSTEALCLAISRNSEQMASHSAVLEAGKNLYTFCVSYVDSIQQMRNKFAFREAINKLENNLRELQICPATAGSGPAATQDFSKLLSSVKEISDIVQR
Chain of Serine/threonine-protein kinase 36 (Homo sapiens) (Q9NRP7 whole entry): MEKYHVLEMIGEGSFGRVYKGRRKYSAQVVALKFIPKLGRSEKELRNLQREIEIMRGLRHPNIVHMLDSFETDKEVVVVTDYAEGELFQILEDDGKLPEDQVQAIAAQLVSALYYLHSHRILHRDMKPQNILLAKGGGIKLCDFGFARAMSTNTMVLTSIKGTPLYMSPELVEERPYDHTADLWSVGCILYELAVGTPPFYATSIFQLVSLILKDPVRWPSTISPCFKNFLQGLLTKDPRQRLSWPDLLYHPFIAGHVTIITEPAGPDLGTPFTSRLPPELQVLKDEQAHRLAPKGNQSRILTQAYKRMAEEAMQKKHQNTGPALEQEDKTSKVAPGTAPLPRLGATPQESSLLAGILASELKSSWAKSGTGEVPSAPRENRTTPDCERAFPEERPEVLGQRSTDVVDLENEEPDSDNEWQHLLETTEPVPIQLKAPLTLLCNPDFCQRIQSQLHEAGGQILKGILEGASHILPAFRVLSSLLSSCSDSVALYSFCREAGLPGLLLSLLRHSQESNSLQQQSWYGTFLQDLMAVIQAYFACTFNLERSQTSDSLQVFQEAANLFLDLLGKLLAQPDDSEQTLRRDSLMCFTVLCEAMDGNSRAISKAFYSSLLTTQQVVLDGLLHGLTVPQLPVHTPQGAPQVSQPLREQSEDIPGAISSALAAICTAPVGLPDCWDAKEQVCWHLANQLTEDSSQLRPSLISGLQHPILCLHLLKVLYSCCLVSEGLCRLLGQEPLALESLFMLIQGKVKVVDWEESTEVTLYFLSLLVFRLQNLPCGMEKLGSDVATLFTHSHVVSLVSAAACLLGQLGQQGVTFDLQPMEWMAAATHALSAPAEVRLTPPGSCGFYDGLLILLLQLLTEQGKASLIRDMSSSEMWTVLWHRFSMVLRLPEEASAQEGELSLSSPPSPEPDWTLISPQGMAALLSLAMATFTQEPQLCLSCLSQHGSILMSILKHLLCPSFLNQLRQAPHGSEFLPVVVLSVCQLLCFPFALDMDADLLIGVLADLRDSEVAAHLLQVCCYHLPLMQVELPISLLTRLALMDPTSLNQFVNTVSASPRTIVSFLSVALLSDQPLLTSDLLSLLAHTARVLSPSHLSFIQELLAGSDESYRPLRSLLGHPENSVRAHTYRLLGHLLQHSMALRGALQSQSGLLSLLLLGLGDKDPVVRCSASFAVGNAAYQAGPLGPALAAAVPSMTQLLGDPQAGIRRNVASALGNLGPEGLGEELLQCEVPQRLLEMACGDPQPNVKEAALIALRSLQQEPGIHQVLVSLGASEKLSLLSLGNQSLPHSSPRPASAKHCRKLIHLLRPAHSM
Chain of Mitogen-activated protein kinase kinase kinase kinase 1 (Homo sapiens) (Q92918 whole entry, looked up): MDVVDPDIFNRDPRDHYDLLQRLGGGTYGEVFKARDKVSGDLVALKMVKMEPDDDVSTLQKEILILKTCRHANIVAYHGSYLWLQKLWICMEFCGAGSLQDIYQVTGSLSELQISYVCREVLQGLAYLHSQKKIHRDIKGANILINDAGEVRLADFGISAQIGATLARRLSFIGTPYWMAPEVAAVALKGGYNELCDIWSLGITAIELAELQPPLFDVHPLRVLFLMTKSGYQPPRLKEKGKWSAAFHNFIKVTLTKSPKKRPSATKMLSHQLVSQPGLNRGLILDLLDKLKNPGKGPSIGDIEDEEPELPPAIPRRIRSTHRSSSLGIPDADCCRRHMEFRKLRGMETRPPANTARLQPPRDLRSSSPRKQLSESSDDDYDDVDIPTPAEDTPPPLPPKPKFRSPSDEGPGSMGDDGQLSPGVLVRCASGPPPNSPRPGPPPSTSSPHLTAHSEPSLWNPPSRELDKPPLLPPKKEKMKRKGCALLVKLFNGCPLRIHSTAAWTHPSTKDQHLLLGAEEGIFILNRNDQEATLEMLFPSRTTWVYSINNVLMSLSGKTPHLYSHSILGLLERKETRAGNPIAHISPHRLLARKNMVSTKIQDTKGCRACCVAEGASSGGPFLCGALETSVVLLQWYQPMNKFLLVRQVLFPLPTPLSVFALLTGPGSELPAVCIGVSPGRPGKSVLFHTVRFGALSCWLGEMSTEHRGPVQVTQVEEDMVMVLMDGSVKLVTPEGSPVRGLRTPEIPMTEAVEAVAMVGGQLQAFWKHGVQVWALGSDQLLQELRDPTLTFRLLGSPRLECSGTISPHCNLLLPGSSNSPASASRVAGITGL
Chain of Cyclin-dependent kinase 14 (Homo sapiens) (O94921 whole entry): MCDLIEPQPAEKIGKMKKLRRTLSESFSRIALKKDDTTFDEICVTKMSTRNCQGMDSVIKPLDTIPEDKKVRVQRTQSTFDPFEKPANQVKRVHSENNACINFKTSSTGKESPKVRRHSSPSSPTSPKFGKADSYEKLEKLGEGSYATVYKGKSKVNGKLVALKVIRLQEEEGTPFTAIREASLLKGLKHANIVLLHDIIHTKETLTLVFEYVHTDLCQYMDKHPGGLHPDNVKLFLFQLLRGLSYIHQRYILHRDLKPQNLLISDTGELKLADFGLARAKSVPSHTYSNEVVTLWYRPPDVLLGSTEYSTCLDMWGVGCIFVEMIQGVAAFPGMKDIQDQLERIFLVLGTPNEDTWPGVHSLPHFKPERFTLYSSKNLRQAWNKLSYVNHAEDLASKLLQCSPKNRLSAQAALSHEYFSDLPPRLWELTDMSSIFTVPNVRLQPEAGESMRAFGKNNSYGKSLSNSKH
Chain of Cyclin-dependent kinase 3 (Homo sapiens) (Q00526 whole entry, looked up): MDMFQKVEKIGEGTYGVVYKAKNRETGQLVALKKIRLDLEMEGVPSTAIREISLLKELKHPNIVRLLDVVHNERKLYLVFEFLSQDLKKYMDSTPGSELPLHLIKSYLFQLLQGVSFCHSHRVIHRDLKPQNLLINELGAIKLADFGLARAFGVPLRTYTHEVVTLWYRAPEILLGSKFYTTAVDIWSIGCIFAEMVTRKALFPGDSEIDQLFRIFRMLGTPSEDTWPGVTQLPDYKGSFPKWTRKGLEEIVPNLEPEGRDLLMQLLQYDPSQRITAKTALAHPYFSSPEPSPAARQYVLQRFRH
Chain of Fibroblast growth factor receptor 1 (Homo sapiens) (P11362 22-822 limits assumed): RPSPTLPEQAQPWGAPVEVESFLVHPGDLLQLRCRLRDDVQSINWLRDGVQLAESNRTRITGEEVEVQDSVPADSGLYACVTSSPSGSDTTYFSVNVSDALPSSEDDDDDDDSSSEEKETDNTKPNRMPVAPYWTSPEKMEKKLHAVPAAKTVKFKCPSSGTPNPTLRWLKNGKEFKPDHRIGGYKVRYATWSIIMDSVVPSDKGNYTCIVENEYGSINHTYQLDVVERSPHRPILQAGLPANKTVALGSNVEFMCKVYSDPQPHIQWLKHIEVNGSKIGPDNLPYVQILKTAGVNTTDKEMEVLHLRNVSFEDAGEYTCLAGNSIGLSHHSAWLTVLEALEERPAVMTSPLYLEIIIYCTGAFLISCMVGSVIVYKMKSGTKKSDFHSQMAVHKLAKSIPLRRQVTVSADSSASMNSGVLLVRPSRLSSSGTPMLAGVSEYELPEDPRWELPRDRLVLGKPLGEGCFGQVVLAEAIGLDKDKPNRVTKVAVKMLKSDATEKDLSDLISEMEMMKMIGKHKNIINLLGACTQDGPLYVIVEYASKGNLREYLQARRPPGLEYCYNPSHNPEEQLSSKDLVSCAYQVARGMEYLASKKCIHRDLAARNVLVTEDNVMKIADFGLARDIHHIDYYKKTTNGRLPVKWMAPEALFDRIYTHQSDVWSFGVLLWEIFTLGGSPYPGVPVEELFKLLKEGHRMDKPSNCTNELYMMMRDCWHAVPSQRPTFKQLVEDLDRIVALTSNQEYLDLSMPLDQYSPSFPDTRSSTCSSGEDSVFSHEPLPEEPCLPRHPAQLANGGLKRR

| SMILES | Activity [1] | Activity [2] | Activity [3] | Activity [4] | Activity [5] | Activity [6] | Activity [7] | Activity [8] | Activity [9] | Activity [10] | Activity [11] | Activity [12] |
| --- | --- | --- | --- | --- | --- | --- | --- | --- | --- | --- | --- | --- |
| Nc1ccccc1Nc1ccc2c(c1)CCc1ccccc1C2=O | 94% | 85% | 97% | 78% | 94% | 96% | 97% | 83% | 84% | 71% | 96% | 95% |
| O=C1c2ccc(Nc3ccc(F)cc3F)cc2CCc2ccc(OC[C@H](O)CO)cc21 [Skepinone-L] | 86% | 96% | 100% | 92% | 90% | 99% | 98% | 95% | 90% | 80% | 85% | 100% |

From ChEMBL document CHEMBL5696441 (Nat Chem Biol, 2011)
